From patent US20160083424A1, “COMPOSITIONS AND METHODS FOR TARGETING ANTIGEN-PRESENTING CELLS” (OSLO UNIVERSITETSSYKEHUS HF, priority 2013, published 2016)
Like-named read-outs stand apart in the source and are kept apart here. Values belong to the molecule of their own block, whether it stands above or below them. Where no end group is shown, it is not given here.

Key:
B cells [1] = assay: Phage binding by flow cytometry; design: species or system human
Procedure: (§1) In brief, aliquots of DCs (10^5) were divided into conical 96-well micro-plate, washed with PBS buffer containing 1% FCS, and then incubated with the amplified phages (≈10^9 TU) for 30-60 min on ice. After washing, cells were incubated with biotinylated anti-M13 monoclonal antibody (Abcam) and then with phycoerythrin (PE)-conjugated streptavidin. Competition assays were performed by pre-incubating DCs with different amounts of the peptides for 15 min on ice. Then NW phage (≈10^9 TU) was added and samples incubated for additional 60 min on ice. After washing, bound phages were detected as indicated above. Samples were analyzed by FACSCanto II flow cytometry.

Blood myeloid DCs [2] = assay: Phage binding by flow cytometry; design: species or system human
Procedure: as §1

Blood pDCs [3] = assay: Phage binding by flow cytometry; design: species or system human
Procedure: as §1

[4] = tested on: Cancer cell lines (MCF-7, MDA-MB 231, SW480, REH); assay: Phage binding by flow cytometry; design: species or system human; settings: all tested cancer cell lines
Procedure: as §1

Monocytes [5] = assay: Phage binding by flow cytometry; design: species or system human
Procedure: as §1

NK cells [6] = assay: Phage binding by flow cytometry; design: species or system human
Procedure: as §1

T cells [7] = assay: Phage binding by flow cytometry; design: species or system human
Procedure: as §1

iDCs [8] = assay: Phage binding by flow cytometry; design: species or system human
Procedure: as §1

mDCs [9] = assay: Phage binding by flow cytometry; design: species or system human
Procedure: as §1

THP-1 = assay: Phage binding by flow cytometry; settings: human monocyte cell line THP-1
Procedure: as §1

DCs = assay: Fluorescence microscopy analysis of phage binding and internalization; assay type: cell-based, human; settings: 37° C. for 90 min
Procedure: DCs were incubated with biotinylated phages at 4° C. for 30 min. After washing, the cells were incubated with streptavidin-PE. […] Hoechst 33342 dye was added to the cells for 5 min and then the cells were washed, fixed with 4% paraformaldehyde, and covered with Dako cytomation fluorescent mounting medium and analyzed with epifluorescence microscopy. Confocal images were obtained using an AxioVert 200 microscope (Carl Zeiss, Jena, Germany).

B cells [10] = assay: Peptide binding by flow cytometry; design: species or system human
Procedure: (§2) The cells were seeded onto 24-well plate (3×10^5/well/0.5 ml) in X-vivo 15 medium and incubated overnight at 37° C. Subsequently, they were incubated with 6IAF-conjugated peptides (5 μg/ml) for 30 min at 37° C., gently scraped, washed 3 times and then analyzed by flow cytometry. Binding was also performed at 4° C.

Blood myeloid DCs [11] = assay: Peptide binding by flow cytometry; design: species or system human
Procedure: as §2

Blood pDCs [12] = assay: Peptide binding by flow cytometry; design: species or system human
Procedure: as §2

Monocytes [13] = assay: Peptide binding by flow cytometry; design: species or system human; settings: compared with dendritic cells
Procedure: as §2

NK cells [14] = assay: Peptide binding by flow cytometry; design: species or system human
Procedure: as §2

T cells [15] = assay: Peptide binding by flow cytometry; design: species or system human
Procedure: as §2

iDCs [16] = assay: Peptide binding by flow cytometry; design: species or system human; settings: 4° C. and 37° C.
Procedure: as §2

iDC = assay: Competition of NW phage binding by synthetic peptides; design: species or system human
Procedure: as §1
To further investigate the importance of the NW peptide on phage binding, competition experiments were performed using synthetic peptides.

Monocytes [17] = assay: Competition of NW phage binding by NW peptide and its mutant peptides; design: species or system human
Procedure: as §1
To uncover the contribution of individual side chains and identify which amino acids are responsible for the NW peptide binding to monocytes and dendritic cells, alanine scanning was performed. Derivatives of the NW peptide were synthesized with exchange of each amino acid by alanine (FIG. 11A). These peptide derivatives were used to compete with the NW phage binding to monocytes. For each peptide, four concentrations were tested. Bound phage particles were detected with the use of biotin conjugated anti-M13 antibody and PE-conjugated streptavidin. The NW peptide (WT) competed effectively with the phage binding to monocytes with an IC50 of approximately 0.5 uM. The replacement of tryptophan (W) at position 2, 6, or 12 by a single alanine abolished the binding. Indeed, no significant competition with the phage binding was seen even at high peptide concentrations (C4=20 uM). Similarly, replacement of leucine (L) at position 4 or 7 by alanine inhibited the peptide binding (FIG. 11B).

iDCs [18] = assay: Peptide binding and internalization by fluorescence microscopy; assay type: cell-based, human
Procedure: Then the medium was replaced with fresh medium and the cells were incubated with the peptides (5 μg/ml) for 60 min at 37° C. followed by 5 min incubation with Hoechst 33342 (Invitrogen Dynal AS, Oslo, Norway). The cells were washed twice with PBS and fixed with 4% paraformaldehyde for 15 min at 4° C. After washing, slides were covered with Dako cytomation fluorescent mounting medium and then images were taken with either epifluorescence (Leica DM RHC, Leica Microscopy As, Oslo, Norway) or confocal microscopy (Zeiss LSM 510, […]).

mDC = assay: Phenotypic analysis of DCs after peptide incubation; assay type: cell-based, human; settings: mDC incubated with peptide (15 μM) for 48 h, flow cytometry
Procedure: Phenotype of DCs was analyzed by direct immunofluorescence staining of cell surface antigens using FITC or PE conjugated antibodies against CD80, CD83, CD86, HLA-DR, CCR7, CD40, and isotype controls. All antibodies were purchased from Dako (Glostrup, Denmark) or BD Biosciences (San Diego, Calif., USA). After staining on ice for 30 min, samples were washed twice and then analyzed by FACSCantoII flow cytometry
(§3) With respect to cancer immunotherapy and active immunization against infectious diseases, targeting moieties should not have a negative impact on DC immunogenic function. To investigate whether the NW peptide can modulate DC phenotype and function, mDC were incubated with the peptide for 48 h and subsequently the expression of CD80, CD83, CD86, and HLADR molecules were analyzed by flow cytometry. […] The ability of mDCs to stimulate T-cell proliferation was assessed in a mixed leukocyte reaction (MLR), a hallmark of DC function. […] The NW-peptide had no major negative effects on DC phenotype and function.

mDCs [19] = assay: Mixed leukocyte reaction (MLR); assay type: cell-based, human; settings: peptide-treated vs untreated mDCs
Procedure: as §3

human Gal-3 = assay: Gene silencing by peptide-siRNA conjugates, Western blot; assay type: cell-based; settings: iDCs, 48 h incubation
Procedure: Immature DCs were seeded in a 6-well plate at a density of 10^6 cells per well and incubated for 24 h prior to transfection. Then the medium was replaced by fresh X-vivo 15 medium (2 ml/well) containing peptide-siRNA conjugates or free siRNAs. Cells were harvested 48 h after addition of the test molecules and monitored for gene expression by Western blots.
Cells were resuspended in protein extraction buffer (PBS+1% NP-40) supplemented with protease inhibitor cocktail (Sigma-Aldrich Norge, Oslo, Norway) and incubated for 30 min on ice. After centrifugation, the supernatant were collected and protein contents were determined using Bio-Rad protein assay. Equal amounts of protein were resolved by electrophoresis on a 10% sodium dodecyl sulfate (SDS)-polyacrylamide gel and electrotransferred to nitrocellulose membrane. After blocking in 5% milk in TBS-Tween (1%) for 60 min, membranes were probed with primary antibodies against Gal-3 and HRP-conjugated secondary antibody. Immunoreactive proteins were detected using the enhanced chemiluminescence system. To control for protein loading, membranes were stripped and then incubated with β-actin monoclonal antibody.
Because siRNA molecules must be released into the cytoplasm in order to function (Elbashir et al., (2001) Nature 411, 494-498), the data further confirm the internalization of the peptide after binding to DCs.

iDCs [20] = tested on: iDCs
Procedure: Commercially available streptavidin-PE (1/200) was incubated with biotinylated NW peptide or control peptide (1 μg/ml) for 30 min at RT. Then the mixtures were added to DCs growing in Lab-Tek chamber slides (Nalge Nunc International, Naperville, USA) and incubated for 60 min at 4° C. The cells were washed 3 times with medium and incubated at 37° C. for 90 min to allow internalization of bound streptavidin-PE. To visualize the nuclei, Hoechst 33342 (Invitrogen Dynal AS, Oslo, Norway) was added to the cells for 5 min. Subsequently, the cells were fixed with 4% paraformaldehyde, washed and slides were covered with Dako cytomation fluorescent mounting medium followed by epifluorescence microscopy analysis. Confocal images were taken with an AxioVert 200 microscope (Carl Zeiss, Jena, Germany).
The use of the NW peptide to target antigens to DCs was assessed by examining its ability to promote the binding and uptake of streptavidin-PE complexes. For these experiments, streptavidin-PE was pre-incubated with either biotin conjugated NW peptide or biotin conjugated control peptide and then the mixtures were added to iDCs growing in Lab-Tek chamber slides, incubated at 4° C., washed and then transferred at 37° C.

Monocytes [21] = settings: biotin labeled peptide (10 μg), Dynabeads M-280 streptavidin, flow cytometry
Procedure: In these experiments, peripheral blood mononuclear cells were isolated from buffy coats of healthy donors by density gradient centrifugation. […] Subsequently, the cells were washed with the binding buffer to remove unbound peptide and then they were suspended in 100 μl binding buffer. Subsequently, pre-washed Dynabeads M-280 streptavidin (20 μl) were added and the mixtures were incubated for 15 min at room temperature with agitation. After, the mixtures were placed in the separation magnet, during which time the beads and any attached cells are drawn to one side of the tube. Non-attached cells were carefully aspirated off and analyzed by flow cytometry to check the removal of the monocyte fraction (FIG. 15).

[22] = molecular target: NW peptide receptor (human); assay: competition with NW phage on monocytes, flow cytometry
[23] = molecular target: NW peptide receptor (human); assay: competition with NW phage on monocytes, flow cytometry; C3 = 8 µM peptide

Molecule: NWYLPWLGTNDW [DC2]
phage binding (B cells [1]): did not bind
Phage Binding (Blood myeloid DCs [2]; Blood myeloid DCs): ++++ (Binding >80-100%: ++++)
phage binding (Blood myeloid DCs [2]; blood CD1c+ myeloid DCs): bound
Phage Binding (Blood pDCs [3]; Blood pDCs): ++++ (Binding >80-100%: ++++)
phage binding (Blood pDCs [3]; CD303+ plasmacytoid DCs): bound
phage binding [4]: did not bind
Phage Binding (Monocytes [5]): ++++ (Binding >80-100%: ++++)
phage binding (Monocytes [5]): strong binding
phage binding (NK cells [6]): did not bind
phage binding (T cells [7]): did not bind
phage binding after trypsine treatment of DCs (iDCs [8]; Trypsine treatment of DCs, data not shown): eliminated phage binding
Binding (iDCs [8]; binding of the phage clones to iDC, flow cytometry): ++++ (Binding >80-100%: ++++)
phage binding (iDCs [8]; iDC): strong binding
Phage Binding (iDCs [8]; iDCs): ++++ (Binding >80-100%: ++++)
Phage Binding (mDCs [9]): ++++ (Binding >80-100%: ++++)
phage binding (mDCs [9]): strong binding
phage binding (THP-1): did not bind
internalization of the phage particles into DCs (DCs): able to mediate the internalization of the phage particles into DCs

Molecule: NWYLPWLGTNDWC [NW peptide, NWYLPWLGTNDWC]
peptide binding (B cells [10]): did not bind
peptide binding (Blood myeloid DCs [11]; Blood myeloid DCs): ++++ (Binding >80-100%: ++++)
peptide binding (Blood myeloid DCs [11]; blood CD1c+ myeloid DCs): bound efficiently
peptide binding (Blood myeloid DCs [11]; blood CD1c+ myeloid DCs, listed as synthetic peptide): bound
peptide binding (Blood pDCs [12]; Blood pDCs): ++++ (Binding >80-100%: ++++)
peptide binding (Blood pDCs [12]; CD303+ plasmacytoid DCs): bound efficiently
peptide binding (Blood pDCs [12]; CD303+ plasmacytoid DCs, listed as synthetic peptide): bound
peptide binding (Monocytes [13]): bound as strongly to monocytes as to dendritic cells
peptide binding (NK cells [14]): did not bind
peptide binding (T cells [15]): did not bind
binding of 6-IAF-conjugated peptides to iDCs (iDCs [16]): strong binding both at 4 °C and 37 °C
inhibition of the phage binding to iDC by synthetic peptides (iDC): effectively inhibited the phage binding to iDC in a concentration-dependent manner
IC50 (Monocytes [17]; dose-dependent inhibition, peptide concentrations 0.4, 2, 8, and 20 μM, read-out: inhibition of the NW phage binding, IC50): 500 nM
IC50 (Monocytes [17]; monocytes, read-out: competition with the phage binding to monocytes, IC50): ~500 nM
cell staining by epifluorescence microscopy (iDCs [18]; 6-IAF-conjugated peptide): strong cell staining
internalization by iDCs (confocal microscopy) (iDCs [18]; 37° C.): efficiently internalized by iDCs
expression of CD80, CD83, CD86, and HLADR molecules (mDC): None of the analyzed markers were significantly affected
T-cell proliferation in MLR (mDCs [19]): comparable T-cell proliferation
Gal-3 gene silencing (human Gal-3): did not induce any detectable gene silencing

Molecule: NWYLPWLGTNDWGGGK-Biotin [NW-Biotin peptide]
binding of streptavidin-PE complexes to DCs (iDCs [20]; biotinylated peptide pre-incubated with streptavidin-PE, 4° C.): mediated the binding of streptavidin-PE complexes to DCs
internalization of streptavidin-PE (iDCs [20]; confocal microscopy, after transfer to 37° C.): clear internalization and cellular localization of streptavidin-PE molecules
removal of the monocyte fraction from PBMC (Monocytes [21]): most, if not all monocyte population were removed

fold reduction in IC50 against the NW peptide [22]: 20 fold
Molecule: NWYLPWLGTW [NW peptide with deletion of N10D11]

mean fluorescence of bound NW phage at C3 concentration [23]: 250
Molecule: NWYLPWLGTAAW [N10D11 double mutant]
